Where a name gives a salt, the structure may show the parent alone.
Target: T1, Sortase family protein (Staphylococcus aureus, UniProt Q9S446)
T1 sequence (Q9S446 whole entry): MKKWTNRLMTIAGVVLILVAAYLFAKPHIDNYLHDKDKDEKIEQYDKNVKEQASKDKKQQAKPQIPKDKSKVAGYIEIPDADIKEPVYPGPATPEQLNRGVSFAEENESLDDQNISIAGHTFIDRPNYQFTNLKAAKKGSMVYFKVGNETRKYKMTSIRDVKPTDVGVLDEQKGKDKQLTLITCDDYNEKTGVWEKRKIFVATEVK
Assay: Inhibition of Staphylococcus aureus sortase A after 1 hr in the presence of fluorescent peptide […]-QALPETGEE-Edans by fluorimetry

Structure (SMILES): O=C(O)c1cc[c]([Hg][OH])cc1 [para-(Hydroxymercury)benzoic acid sodium salt]
- IC50: 111 µM

Source: BindingDB's records for doi:10.1021/np9005629 (Seoul National University, 2010)
